Data taken from patent US8324166B2, “Neuroprotection using NAP-like and SAL-like peptide mimetics” (Ramot at Tel-Aviv University, Ltd., priority 2007, dated 2012).
Where “and” joins values, the source holds several entries; their conditions need not be identical. Equal values may be shown once. Entries after “also recorded” stand apart in the source; their conditions may differ.

Columns and labels:
ADNP = assay: Nuclear ADNP level in cerebral cortex by immunoblotting; type: in vivo, mouse; details: NAT vs vehicle treated TAU-Tg, p=0.0028, listed as NAT
Experimental: (§1) The experiment included three groups: Tau-Tg female mice, 10-month-old, treated by intranasal administration of NAT 2 μg/5 μl/mouse/day (n=5) or vehicle (SW/mouse/day) (n=6), and as control, non-Tg female littermates treated by vehicle (SW/mouse/day) (n=7).
Mouse brain tissue was rapidly dissected and quickly separated into four different brain sections: cortex, hippocampus, cerebellum and rest of the brain. Brains were kept frozen at −80° C. for further biochemical analysis. Total levels of nuclear ADNP were analyzed by immunoblotting. Cerebral cortex samples (˜50 mg each) were homogenized and cytoplasmic and nucleus proteins were separated using lysis buffer (20 mM TRIS HCl pH […], 0.1 mM EDTA, 1.5 mM MgCl2, 0.2% NP-40) and extraction buffer (10 mM TRIS HCl pH 7.7, 0.1 mM EDTA, 1.5 mM MgCl2, 20% Glycerol, 1.61 gr NaCl). Protein amount was estimated and corrected by using the Bradford assay and then separated by electrophoresis on 12% polyacrylamide gels containing SDS (Shiryaev et al., (2009) Neurobiol Dis, 34, 381-388). Western blot analyses were performed by applying brain protein samples onto two gels. Each gel had sample representation from each one of the three groups. […] Protein bands on hyperfilm were quantified using photochromatography analysis. The ADNP amount in each band was calculated as its percentage from the total amount of all bands. […]

[1] = system: rTg(tauP301L)4510 mouse (Tau-Tg); assay: Morris water maze in Tau transgenic mice; type: in vivo; details: Tau-Tg female mice, intranasal NAT 2 μg/5 μl/mouse/day; p=0.039
Experimental: The mouse model, used in the current study, was previously described (Ramsden et al., (2005) J Neurosci, 25, 10637-10647). The rTg(tauP301L)4510 mouse (designated as Tau-Tg below) expresses the human 4-repeat Tau with the P301L mutation (4RON) associated with frontotemporal dementia and Parkinsonism linked to chromosome 17.
as §1
NAT was dissolved in a vehicle solution, in which each milliliter include 7.5 mg of NaCl, 1.7 mg of citric acid monohydrate, 3 mg of disodium phosphate dehydrate, and 0.2 mg of benzalkonium chloride solution (50%). 5 μl of NAT or vehicle solution (DD) were administered intranasally.
Treatment started at 9 months of age and continued daily for a period of 5 weeks. At each test NAT was applied 1 h before the test begun.
Each mouse was placed in a pool of water that is colored opaque with powdered non-fat milk, where it must swim to a hidden escape platform. […]
Experimental procedure: Mice were treated with NAT or vehicle and then habituated for 1 hour in the experiment room. […] The time required for reaching the platform in each trial and the path lengths were measured. […]

[2] = system: neurons in mixed neuroglial cultures intoxicated with beta-amyloid 1-42; assay: MAP2 assay: neuronal survival in mixed neuroglial cultures following beta-amyloid intoxication; type: cell-based, rat
Experimental: Newborn rats were used to prepare cerebral cortical astrocytes cell cultures as described above. After suspending the cells in D1, they were centrifuged at 100 g for 5 minutes and the supernatant discarded. The cell pellet was resuspended in solution D2 containing 5% heat inactivated horse serum (Biological Industries, Beit Haemek, Israel), 0.1% gentamycin, 0.1% penicillin-streptomycin-nystatin, 1% N3 (defined medium components essential for neuronal development in culture, (Romijn HJ, Brain Res., 254:583-9 (1981)]), 15 μg/ml 5′-fluoro-2-deoxyuridine (FUDR, Sigma, Rehovot, Israel), and 3 μg/ml uridine (Sigma, Rehovot, Israel) in DMEM. Cells were counted in a hemocytometer, diluted in D2 and 17,000 cells/well/96 well plate were seeded on 8-day-old astrocytes prepared as described above. The medium was changed the next day to D2 without FUDR and uridine. Cells were allowed to grow for one week at 37° C. 10% CO2 before experiments were performed.
Neuronal survival in neuroglial cultures following beta-amyloid intoxication was assayed using the neuron specific antibody, MAP2. […] The cells were incubated for 5 days in 10% CO2 at 37°C.
5 days after the addition of beta-amyloid and the peptide, the cells were fixed by removing the media from each well and the addition of cold methanol. The cells were left in the refrigerator overnight. The cells were immunostained with anti-MAP2 as previously described (Brooke S M et al., Neurosci. Lett., 267:21-4(1999)): the methanol was removed and the cells were washed 4 times with phosphate buffered saline (PBS). Blocking for non-specific antibody binding was performed by incubating the cells in 5% non-fat milk in PBS overnight at 4° C. The blocking solution was then removed and anti-MAP2(1:1000; Sigma, Rehovot, Israel) was added to each well. The cells were incubated for 30 minutes at room temperature, followed by 4 washes with PBS. Biotinylated anti-mouse IgG (1:200, Vector Laboratories, Burlingame, Calif., USA) was then added to each well, and the cells were incubated for 30 minutes at room temperature followed by 4 washes with PBS. The cells were incubated at room temperature for 30 minutes with the ABC reagent (Vector Laboratories, Burlingame, Calif., USA) prepared according to the manufacturer's protocol and then washed 4 times with PBS. ABTS reagent, prepared according to the manufacturer's protocol (Vector Laboratories, Burlingame, Calif., USA) was then added to each well and the cells were incubated for 20 minutes in the dark at room temperature. The plates were read in an ELISA plate reader at 405nm. As blanks, wells containing untreated cells and no primary antibody were used.

NATLSIHQ (synthetic NAP-like peptide)
amount of nuclear ADNP protein (ADNP): difference between the NAT and vehicle treated TAU-Tg groups; also recorded: statistically significant increase | improvement in learning: latency to find the hidden platform, first day vs fifth day, second daily trial [1]: Significant improvement | effective concentrations on neuronal survival: Neurons (25 μM beta-amyloid) ([2]; MAP2 assay, 5 days, tested 10^−19M to 10^−5M, significance vs negative control in cell): 10^−19 M and 10^−15 M and 10^−17 M and 10^−13 M | activity in neuroprotection assay ([2]; neuroglial cells, beta-amyloid): active | efficacy compared between peptides ([2]; survival of neuroglial cells): greater than that of STPTAIPQ
